Results from ChEMBL document CHEMBL2216754, “Discovery of Imidazoquinolines with Toll-Like Receptor 7/8 Independent Cytokine Induction” (ACS Med Chem Lett, 2012).
pEC50: −log10 of the molar value.

What was measured:
[1] = Immunomodulatory activity in C57BL/6 mouse BMDC assessed as TNFalpha production at 30 uM after 3 days by FACS flow cytometric analysis (reference value: 91.3 +/- 34.5 pg/mL); format: functional
[2] = Immunomodulatory activity in C57BL/6 mouse BMDC assessed as IL-1beta production at 30 uM after 3 days by FACS flow cytometric analysis (reference value: 26.2 +/- 3.7 pg/mL); format: functional
[3] = Immunomodulatory activity in C57BL/6 mouse BMDC assessed as IL-12p40 production at 30 uM after 3 days by FACS flow cytometric analysis (reference value: 260.6 +/- 11.9 pg/mL); format: functional
[4] = Immunomodulatory activity in C57BL/6 mouse BMDC assessed as IL-10 production at 30 uM after 3 days by FACS flow cytometric analysis (reference value: 16.2 +/- 4.7 pg/mL); format: functional
Toll-like receptor 7 = target: T1, Toll-like receptor 7 (Homo sapiens, UniProt Q9NYK1); assay: Agonist activity at human TLR7 transfected in HEK cells assessed as NFkappaB induction after 24 hrs by specific secreted alkaline phosphatase gene assay; format: functional, cell-based, HEK293
T1 sequence (Q9NYK1 whole entry): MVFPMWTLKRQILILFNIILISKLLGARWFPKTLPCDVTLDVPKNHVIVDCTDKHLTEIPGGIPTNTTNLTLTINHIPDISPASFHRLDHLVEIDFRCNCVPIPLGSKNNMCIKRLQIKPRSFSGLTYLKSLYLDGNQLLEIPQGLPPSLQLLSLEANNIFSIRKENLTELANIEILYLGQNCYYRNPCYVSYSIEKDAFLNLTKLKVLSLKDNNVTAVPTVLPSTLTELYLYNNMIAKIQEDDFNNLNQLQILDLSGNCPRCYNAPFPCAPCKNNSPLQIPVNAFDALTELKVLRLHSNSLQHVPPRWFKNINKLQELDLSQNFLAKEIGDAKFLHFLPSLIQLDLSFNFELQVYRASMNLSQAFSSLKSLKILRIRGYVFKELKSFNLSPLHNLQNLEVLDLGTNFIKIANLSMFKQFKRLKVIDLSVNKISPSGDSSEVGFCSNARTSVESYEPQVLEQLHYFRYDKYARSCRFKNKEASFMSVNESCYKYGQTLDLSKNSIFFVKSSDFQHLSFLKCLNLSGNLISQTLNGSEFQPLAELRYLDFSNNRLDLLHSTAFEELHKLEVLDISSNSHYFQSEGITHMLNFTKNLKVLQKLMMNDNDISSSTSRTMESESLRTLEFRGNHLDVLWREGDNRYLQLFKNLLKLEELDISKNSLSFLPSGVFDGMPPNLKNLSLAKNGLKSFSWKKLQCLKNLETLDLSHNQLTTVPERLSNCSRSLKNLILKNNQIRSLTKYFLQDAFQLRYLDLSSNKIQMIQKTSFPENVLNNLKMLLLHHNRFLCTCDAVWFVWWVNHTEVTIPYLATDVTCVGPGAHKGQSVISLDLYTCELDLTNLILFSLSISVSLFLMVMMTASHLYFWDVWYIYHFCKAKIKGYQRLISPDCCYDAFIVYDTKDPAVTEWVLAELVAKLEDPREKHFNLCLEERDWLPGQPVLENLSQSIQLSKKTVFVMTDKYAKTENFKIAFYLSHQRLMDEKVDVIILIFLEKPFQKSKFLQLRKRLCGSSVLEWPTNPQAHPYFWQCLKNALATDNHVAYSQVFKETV

Toll-like receptor 8 = target: T2, Toll-like receptor 8 (Homo sapiens, UniProt Q9NR97); assay: Agonist activity at human TLR8 transfected in HEK cells assessed as NFkappaB induction after 24 hrs by specific secreted alkaline phosphatase gene assay; format: functional, cell-based, HEK293
T2 sequence (Q9NR97 whole entry): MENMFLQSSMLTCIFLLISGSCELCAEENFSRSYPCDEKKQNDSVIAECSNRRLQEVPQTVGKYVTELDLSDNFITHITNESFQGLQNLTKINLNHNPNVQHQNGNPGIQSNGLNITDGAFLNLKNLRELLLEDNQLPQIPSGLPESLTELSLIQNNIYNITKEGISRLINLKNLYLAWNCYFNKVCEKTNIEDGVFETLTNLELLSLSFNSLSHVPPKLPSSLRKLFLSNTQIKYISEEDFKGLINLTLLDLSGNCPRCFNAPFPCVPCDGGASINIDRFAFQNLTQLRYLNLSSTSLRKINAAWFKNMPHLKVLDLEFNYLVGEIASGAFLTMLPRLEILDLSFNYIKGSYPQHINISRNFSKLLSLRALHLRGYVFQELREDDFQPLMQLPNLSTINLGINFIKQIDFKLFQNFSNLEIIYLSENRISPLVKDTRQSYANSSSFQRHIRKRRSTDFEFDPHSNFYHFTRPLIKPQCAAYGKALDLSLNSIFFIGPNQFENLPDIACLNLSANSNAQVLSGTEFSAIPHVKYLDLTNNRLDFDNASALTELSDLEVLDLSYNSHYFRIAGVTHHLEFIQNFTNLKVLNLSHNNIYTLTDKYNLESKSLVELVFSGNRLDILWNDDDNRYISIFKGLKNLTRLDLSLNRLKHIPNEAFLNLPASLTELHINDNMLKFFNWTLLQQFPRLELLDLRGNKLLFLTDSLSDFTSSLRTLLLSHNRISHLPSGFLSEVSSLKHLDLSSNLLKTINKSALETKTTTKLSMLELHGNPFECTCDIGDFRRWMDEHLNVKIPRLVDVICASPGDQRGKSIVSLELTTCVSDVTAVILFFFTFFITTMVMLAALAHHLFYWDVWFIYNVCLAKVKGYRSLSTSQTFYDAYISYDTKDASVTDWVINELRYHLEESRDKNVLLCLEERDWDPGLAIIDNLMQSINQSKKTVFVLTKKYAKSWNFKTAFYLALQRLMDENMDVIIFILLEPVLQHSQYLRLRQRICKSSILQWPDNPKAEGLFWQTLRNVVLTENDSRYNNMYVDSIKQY

[5] = Immunomodulatory activity in C57BL/6 mouse BMDC assessed as TNFalpha production at 30 uM after 3 days by FACS flow cytometric analysis relative to imiquimod; format: functional
[6] = Immunomodulatory activity in C57BL/6 mouse BMDC assessed as IL-12p40 production at 30 uM after 3 days by FACS flow cytometric analysis relative to imiquimod; format: functional

Row | pEC50 (Toll-like receptor 7) | pEC50 (Toll-like receptor 8) | SMILES | Activity [1] | Activity [2] | Activity [3] | Activity [4] | fold change (FC) [5] | fold change (FC) [6]
1 | < 3.57 | < 3.57 | COC(=O)c1ccc2c(c1)nc(N)c1ncn(CC(C)(C)O)c12 | 1451 pg/mL | 1144 pg/mL | 1773 pg/mL | 94 pg/mL | >2 | >2
2 | 4.92 | < 3.57 | CC(C)Cn1cnc2c(N)nc3ccccc3c21 [IMIQUIMOD] | 593 pg/mL | 35 pg/mL | 889 pg/mL | 33 pg/mL | – | –
3 | 4.02 | < 3.57 | CC(C)(O)Cn1cnc2c(N)nc3ccccc3c21 | 2041 pg/mL | 61 pg/mL | 839 pg/mL | 60 pg/mL | – | –

More lines, now with the values behind:

Row | SMILES | pEC50 (Toll-like receptor 7) | pEC50 (Toll-like receptor 8) | Activity [1] | Activity [2] | Activity [3] | Activity [4] | fold change (FC) [5] | fold change (FC) [6]
4 | CCCCc1nc2c(N)nc3ccccc3c2n1CC(C)(C)O | – | – | 1743 pg/mL | 73 pg/mL | 864 pg/mL | 181 pg/mL | – | –
5 | CCOCc1nc2c(N)nc3ccccc3c2n1CC(C)(C)O [RESIQUIMOD] | – | – | 2134 pg/mL | 38 pg/mL | 1491 pg/mL | 72 pg/mL | – | –
6 | CCCCc1nc2c(N)nc3cc(C(=O)OC)ccc3c2n1CC(C)(C)O | 5.92 | 4.38 | 1353 pg/mL | 893 pg/mL | 1286 pg/mL | 110 pg/mL | – | –
